From PubChem BioAssay AID1845194 (Molecular Pharmacology Branch, DTP, NCI, 2023) come the findings set out here.

This test has as its system 287954-098-R-J1 tumor spheroid viability. The experiment in a line: Anticancer human tumor 287954-098-R-J1 patient-derived Ewing sarcoma cell line growth inhibition. Particulars: spheroids with HUVEC and MSC; for viability, T/C: stronger effect = lower value. The procedure, abridged: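 Single agents and combinations were tested on spheroids built from tumor cells plus HUVEC and hMSC, at half-log dilutions starting at or near clinical Cmax, else 10 microM; final DMSO 0.25% (v/v).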

pIC50: −log10 of the molar value. Values joined by “and” are separate entries in the source; they are usually repeats but may differ in a detail not shown here. Equal entries are not always repeated.
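Also: spheroids exposed to compound for 7 days before viability readout.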
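For viability, T/C in this document: luminescent signal taken as surrogate of viable cell content; 100% = DMSO vehicle control viability and lower means growth inhibition.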

As usually defined, the pIC50 is −log10 of the IC50, conventionally taken in molar units. In general, viability, T/C refers to the ratio of treated to control. As for `Cn1ncnc1[C@H]1c2n[nH]c(=O)c3cc(F)cc(c23)N[C@@H]1c1ccc(F)cc1` + CC[C@@]1(O)C(=O)OCc2c1cc1n(c2=O)Cc2cc3c(CN(C)C)c(O)ccc3nc2-1, the negative logarithm of the IC50 (pIC50) was 6.34 (curve of first compound, second compound 0.003 µM); 7.13 (curve of first compound, second compound 0.00949 µM); over 8.02 (curve of first compound, second compound 0.03 µM); over 8.02 (curve of first compound, second compound 0.0949 µM); over 8.02 (curve of first compound, second compound 0.3 µM). Moreover, the viability, T/C (second compound 0.003 µM, first compound 0.00949 µM) was 99.9%; the viability, T/C (second compound 0.003 µM, first compound 0.03 µM) is 97.6%; the viability, T/C (second compound 0.003 µM, first compound 0.0949 µM) is 105%; the viability, T/C (second compound 0.003 µM, first compound 0.3 µM) is 76.4%; the viability, T/C (second compound 0.003 µM, first compound 0.949 µM) is 2.29%; the viability, T/C (second compound 0.003 µM, first compound 3 µM) was 2.4%. For the same molecule, the viability, T/C is, setting by setting: (second compound 0.00949 µM, first compound 0.00949 µM) 90.6%; (second compound 0.00949 µM, first compound 0.03 µM) 74.2%; (second compound 0.00949 µM, first compound 0.0949 µM) 45.6%; (second compound 0.00949 µM, first compound 0.3 µM) 2.19%; (second compound 0.00949 µM, first compound 0.949 µM) 2.05%; (second compound 0.00949 µM, first compound 3 µM) 2.02%. Moreover, the viability, T/C (second compound 0.03 µM, first compound 0.00949 µM) is 2.23%; the viability, T/C (second compound 0.03 µM, first compound 0.03 µM) was 1.81%; the viability, T/C (second compound 0.03 µM, first compound 0.0949 µM) is 2.46%; the viability, T/C (second compound 0.03 µM, first compound 0.3 µM) was 2.34%; the viability, T/C (second compound 0.03 µM, first compound 0.949 µM) was 1.82%; the viability, T/C (second compound 0.03 µM, first compound 3 µM) is 2.07%. For the same molecule, the viability, T/C runs as follows: (second compound 0.0949 µM, first compound 0.00949 µM) 1.93%; (second compound 0.0949 µM, first compound 0.03 µM) 1.99%; (second compound 0.0949 µM, first compound 0.0949 µM) 2.15%; (second compound 0.0949 µM, first compound 0.3 µM) 1.75%; (second compound 0.0949 µM, first compound 0.949 µM) 2.09%; (second compound 0.0949 µM, first compound 3 µM) 1.72%. Also, the viability, T/C is, setting by setting: (second compound 0.3 µM, first compound 0.00949 µM) 1.85%; (second compound 0.3 µM, first compound 0.03 µM) 1.99%; (second compound 0.3 µM, first compound 0.0949 µM) 1.97%; (second compound 0.3 µM, first compound 0.3 µM) 1.59%; (second compound 0.3 µM, first compound 0.949 µM) 1.85%; (second compound 0.3 µM, first compound 3 µM) 1.48%.
As for `COc1ccc([C@@H](O)c2cc(-c3ncnc4cc(N5CCOCC5)ccc34)c(F)cc2Cl)nn1`, the viability, T/C is, setting by setting: (compound 0.0316 µM) 96.1% and 101% and 92.6%; (compound 0.1 µM) 96% and 113% and 96.1%; (compound 0.316 µM) 97% and 107% and 92.6%; (compound 1 µM) 105% (2×) and 102%; (compound 3.16 µM) 109% and 98.1% and 100%; (compound 10 µM) 103% and 87.1% and 82.1%. In addition, the negative logarithm of the IC50 (pIC50) (curve of compound) is under 5.00.
With `COc1cc(C)[nH]c(=O)c1CN1CCc2c(Cl)cc(C(OC)C3COC3)c(Cl)c2C1=O` (stereo unspecified), the viability, T/C was 97.7% and 96.7% and 96.6% (compound 0.0316 µM); 94.9% and 102% and 98.6% (compound 0.1 µM); 82.7% and 91.7% and 95.5% (compound 0.316 µM); 93.9% and 89.7% and 90.5% (compound 1 µM); 95.1% and 83.6% and 94.9% (compound 3.16 µM); 93% and 92.8% and 93.6% (compound 10 µM). Besides, the negative-log IC50 (pIC50) (curve of compound) is under 5.00.
For the molecule `CC(C)n1c(=O)n(C)c2cnc3cc(F)c(-c4ccc(OCCCN5CCCCC5)nc4)cc3c21` + Cn1nnc2c(C(N)=O)ncn2c1=O, the negative logarithm of the IC50 (pIC50) (curve of first compound, second compound 1 µM) was under 5.00; the negative-log IC50 (pIC50) (curve of first compound, second compound 3.16 µM) was under 5.00; the pIC50 (curve of first compound, second compound 10 µM) was under 5.00; the pIC50 (curve of first compound, second compound 31.6 µM) is under 5.00; the pIC50 (curve of first compound, second compound 100 µM) is under 5.00. The viability, T/C was 97% (second compound 1 µM, first compound 0.0316 µM); 97.6% (second compound 1 µM, first compound 0.1 µM); 110% (second compound 1 µM, first compound 0.316 µM); 108% (second compound 1 µM, first compound 1 µM); 105% (second compound 1 µM, first compound 3.16 µM); 97.9% (second compound 1 µM, first compound 10 µM). Besides, the viability, T/C was 106% (second compound 3.16 µM, first compound 0.0316 µM); 110% (second compound 3.16 µM, first compound 0.1 µM); 110% (second compound 3.16 µM, first compound 0.316 µM); 112% (second compound 3.16 µM, first compound 1 µM); 118% (second compound 3.16 µM, first compound 3.16 µM); 85.9% (second compound 3.16 µM, first compound 10 µM). Besides, the viability, T/C is 109% (second compound 10 µM, first compound 0.0316 µM); 105% (second compound 10 µM, first compound 0.1 µM); 104% (second compound 10 µM, first compound 0.316 µM); 109% (second compound 10 µM, first compound 1 µM); 118% (second compound 10 µM, first compound 3.16 µM); 79.6% (second compound 10 µM, first compound 10 µM). The viability, T/C (second compound 31.6 µM, first compound 0.0316 µM) was 113%; the viability, T/C (second compound 31.6 µM, first compound 0.1 µM) was 110%; the viability, T/C (second compound 31.6 µM, first compound 0.316 µM) was 105%; the viability, T/C (second compound 31.6 µM, first compound 1 µM) was 113%; the viability, T/C (second compound 31.6 µM, first compound 3.16 µM) is 113%; the viability, T/C (second compound 31.6 µM, first compound 10 µM) is 85.2%. For the same molecule, the viability, T/C (second compound 100 µM, first compound 0.0316 µM) was 92.5%; the viability, T/C (second compound 100 µM, first compound 0.1 µM) is 104%; the viability, T/C (second compound 100 µM, first compound 0.316 µM) was 94.3%; the viability, T/C (second compound 100 µM, first compound 1 µM) is 112%; the viability, T/C (second compound 100 µM, first compound 3.16 µM) is 109%; the viability, T/C (second compound 100 µM, first compound 10 µM) was 103%.
In the case of `Cc1sc2c(c1C)C(c1ccc(Cl)cc1)=NC(CC(=O)Nc1ccc(O)cc1)c1nnc(C)n1-2` (stereo unspecified), the viability, T/C reads like this: (compound 0.00949 µM) 113% and 114% and 104%; (compound 0.03 µM) 113% and 116% and 107%; (compound 0.0949 µM) 116% and 126% and 112%; (compound 0.3 µM) 86.4% and 108% and 84.2%; (compound 0.949 µM) 41% and 29% and 17.1%; (compound 3 µM) 4.42% and 2.62% and 6.59%. The pIC50 (curve of compound) was 6.13 and 6.16 and 6.27.
